Legend:
LucPpy = molecular target: T1, LucPpy (Photinus pyralis, UniProt P08659); assay: Stability of reagent composition with LucPpy and detergent (RT, pH 7.0); assay type: biochemical; settings: LucPpy
T1 construct: purchased Promega E170A
How it was run: (§1)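 Reagent with 50 μg/ml luciferase, luciferin, MgSO4, buffer and detergent at varying concentrations held at about 23° C; enzyme added just before first read. At timepoints, aliquots mixed 1:1 with media containing ATP and luminescence read immediately (0.5 s/well, triplicate); reaction half-lives and percent of original luminescence derived.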

LucPpe2m146 = assay: Stability of reagent composition with LucPpe2m146 and detergent (RT, pH 7.0); assay type: biochemical, Photuris pennsylvanica
How it was run: as §1

**Q.** For `C[C@H](CCC(=O)[O-])[C@H]1CC[C@H]2[C@@H]3CC[C@@H]4C[C@H](O)CC[C@]4(C)[C@H]3C[C@H](O)[C@]12C.[Na+]` [Deoxycholate, sodium deoxycholate], which “Average Relative Light Units” value (LucPpy; 0.02%, 0.75 min (head r32)) is on record?
**A.** Its value is 3199.250 rlu.

**Q.** What about the “Percent of Luminescence Remaining” value (LucPpy; 0.02%, 0.75 min (times of Table I r32)) of the same compound?
**A.** Its value is 100.00%.

**Q.** What about the “Average Relative Light Units” value (LucPpy; 0.02%, 38 min (head r32)) of the same compound?
**A.** The value was 2844.010 rlu.

**Q.** What about the “Percent of Luminescence Remaining” value (LucPpy; 0.02%, 38 min (times of Table I r32)) of the same compound?
**A.** Its value is 88.90%.

**Q.** And the “Average Relative Light Units” value (LucPpy; 0.02%, 70 min (head r32))?
**A.** The value was 2626.260 rlu.

**Q.** And the “Percent of Luminescence Remaining” value (LucPpy; 0.02%, 70 min (times of Table I r32))?
**A.** Its value is 82.09%.

**Q.** And the “Average Relative Light Units” value (LucPpy; 0.02%, 94 min (head r32))?
**A.** The value was 2496.570 rlu.

**Q.** And the “Percent of Luminescence Remaining” value (LucPpy; 0.02%, 94 min (times of Table I r32))?
**A.** Its value is 78.04%.

**Q.** What about the “Average Relative Light Units” value (LucPpy; 0.02%, 122 min (head r32)) of the same compound?
**A.** The value was 2314.910 rlu.

**Q.** What about the “Percent of Luminescence Remaining” value (LucPpy; 0.02%, 122 min (times of Table I r32)) of the same compound?
**A.** Its value is 72.3%.

**Q.** What about the “Average Relative Light Units” value (LucPpy; 0.1%, 0.75 min (head r18)) of the same compound?
**A.** Its value is 19.771 rlu.

**Q.** What about the “Percent of Luminescence Remaining” value (LucPpy; 0.1%, 0.75 min (times of Table I r18)) of the same compound?
**A.** The value was 100.00%.

**Q.** What about the “Average Relative Light Units” value (LucPpy; 0.1%, 10 min (head r18)) of the same compound?
**A.** Its value is 0.180 rlu.

**Q.** What about the “Percent of Luminescence Remaining” value (LucPpy; 0.1%, 10 min (times of Table I r18)) of the same compound?
**A.** Its value is 0.91%.

**Q.** And the “Average Relative Light Units” value (LucPpy; 0.1%, 36 min (head r18))?
**A.** Its value is 0.026 rlu.

**Q.** And the “Percent of Luminescence Remaining” value (LucPpy; 0.1%, 36 min (times of Table I r18))?
**A.** Its value is 0.13%.

**Q.** And the “Average Relative Light Units” value (LucPpy; 0.5%, 0.75 min (head r5))?
**A.** Its value is 4.801 rlu.

**Q.** What about the “Percent of Luminescence Remaining” value (LucPpy; 0.5%, 0.75 min (times of Table I r5)) of the same compound?
**A.** The value was 100.00%.

**Q.** And the “Average Relative Light Units” value (LucPpy; 0.5%, 21 min (head r5))?
**A.** Its value is 0.012 rlu.

**Q.** And the “Percent of Luminescence Remaining” value (LucPpy; 0.5%, 21 min (times of Table I r5))?
**A.** Its value is 0.25%.

**Q.** What about the “Average Relative Light Units” value (LucPpy; 0.5%, 39 min (head r5)) of the same compound?
**A.** The value was 0.007 rlu.

**Q.** And the “Percent of Luminescence Remaining” value (LucPpy; 0.5%, 39 min (times of Table I r5))?
**A.** Its value is 0.15%.

**Q.** And the “Average Relative Light Units” value (LucPpe2m146; LucPpe2m146, 0.02%, 1.0 min (head r67))?
**A.** The value was 24307.30 rlu.

**Q.** And the “Percent of Luminescence Remaining” value (LucPpe2m146; LucPpe2m146, 0.02%, 1.0 min (times of Table I r67))?
**A.** Its value is 100.00%.

**Q.** What about the “Average Relative Light Units” value (LucPpe2m146; LucPpe2m146, 0.02%, 34 min (head r67)) of the same compound?
**A.** Its value is 24639.00 rlu.

**Q.** And the “Percent of Luminescence Remaining” value (LucPpe2m146; LucPpe2m146, 0.02%, 34 min (times of Table I r67))?
**A.** Its value is 101.36%.

**Q.** And the “Average Relative Light Units” value (LucPpe2m146; LucPpe2m146, 0.02%, 65 min (head r67))?
**A.** The value was 24717.97 rlu.

**Q.** And the “Percent of Luminescence Remaining” value (LucPpe2m146; LucPpe2m146, 0.02%, 65 min (times of Table I r67))?
**A.** The value was 101.69%.

**Q.** And the “Average Relative Light Units” value (LucPpe2m146; LucPpe2m146, 0.02%, 115 min (head r67))?
**A.** Its value is 23158.37 rlu.

**Q.** And the “Percent of Luminescence Remaining” value (LucPpe2m146; LucPpe2m146, 0.02%, 115 min (times of Table I r67))?
**A.** Its value is 95.27%.

**Q.** And the “Average Relative Light Units” value (LucPpe2m146; LucPpe2m146, 0.02%, 175 min (head r67))?
**A.** The value was 24655.43 rlu.

**Q.** What about the “Percent of Luminescence Remaining” value (LucPpe2m146; LucPpe2m146, 0.02%, 175 min (times of Table I r67)) of the same compound?
**A.** Its value is 101.43%.

**Q.** And the “Average Relative Light Units” value (LucPpe2m146; LucPpe2m146, 0.02%, 238 min (head r67))?
**A.** Its value is 24320.6 rlu.

**Q.** What about the “Percent of Luminescence Remaining” value (LucPpe2m146; LucPpe2m146, 0.02%, 238 min (times of Table I r67)) of the same compound?
**A.** The value was 100.05%.

**Q.** What about the “Average Relative Light Units” value (LucPpe2m146; LucPpe2m146, 0.02%, 286 min (head r67)) of the same compound?
**A.** The value was 24303.9 rlu.

**Q.** And the “Percent of Luminescence Remaining” value (LucPpe2m146; LucPpe2m146, 0.02%, 286 min (times of Table I r67))?
**A.** The value was 99.99%.

**Q.** And the “Average Relative Light Units” value (LucPpe2m146; LucPpe2m146, 0.1%, 1.0 min (head r54))?
**A.** The value was 5150.43 rlu.

**Q.** And the “Percent of Luminescence Remaining” value (LucPpe2m146; LucPpe2m146, 0.1%, 1.0 min (times of Table I r54))?
**A.** The value was 100.00%.

**Q.** And the “Average Relative Light Units” value (LucPpe2m146; LucPpe2m146, 0.1%, 34 min (head r54))?
**A.** The value was 5031.12 rlu.

**Q.** What about the “Percent of Luminescence Remaining” value (LucPpe2m146; LucPpe2m146, 0.1%, 34 min (times of Table I r54)) of the same compound?
**A.** Its value is 97.68%.

**Q.** What about the “Average Relative Light Units” value (LucPpe2m146; LucPpe2m146, 0.1%, 65 min (head r54)) of the same compound?
**A.** The value was 6855.67 rlu.

**Q.** And the “Percent of Luminescence Remaining” value (LucPpe2m146; LucPpe2m146, 0.1%, 65 min (times of Table I r54))?
**A.** Its value is 133.11%.

**Q.** And the “Average Relative Light Units” value (LucPpe2m146; LucPpe2m146, 0.1%, 115 min (head r54))?
**A.** The value was 6340.45 rlu.

**Q.** What about the “Percent of Luminescence Remaining” value (LucPpe2m146; LucPpe2m146, 0.1%, 115 min (times of Table I r54)) of the same compound?
**A.** The value was 123.11%.

**Q.** What about the “Average Relative Light Units” value (LucPpe2m146; LucPpe2m146, 0.1%, 175 min (head r54)) of the same compound?
**A.** Its value is 7347.09 rlu.

**Q.** And the “Percent of Luminescence Remaining” value (LucPpe2m146; LucPpe2m146, 0.1%, 175 min (times of Table I r54))?
**A.** The value was 142.65%.

**Q.** And the “Average Relative Light Units” value (LucPpe2m146; LucPpe2m146, 0.1%, 238 min (head r54))?
**A.** Its value is 6801.23 rlu.

**Q.** And the “Percent of Luminescence Remaining” value (LucPpe2m146; LucPpe2m146, 0.1%, 238 min (times of Table I r54))?
**A.** Its value is 132.05%.

**Q.** What about the “Average Relative Light Units” value (LucPpe2m146; LucPpe2m146, 0.1%, 286 min (head r54)) of the same compound?
**A.** Its value is 7472.54 rlu.

**Q.** And the “Percent of Luminescence Remaining” value (LucPpe2m146; LucPpe2m146, 0.1%, 286 min (times of Table I r54))?
**A.** The value was 145.09%.

**Q.** And the “Average Relative Light Units” value (LucPpe2m146; LucPpe2m146, 0.5%, 15 min (head r41))?
**A.** The value was 45.977 rlu.

**Q.** And the “Percent of Luminescence Remaining” value (LucPpe2m146; LucPpe2m146, 0.5%, 15 min (times of Table I r41))?
**A.** Its value is 100.00%.

**Q.** And the “Average Relative Light Units” value (LucPpe2m146; LucPpe2m146, 0.5%, 72 min (head r41))?
**A.** Its value is 229.874 rlu.

**Q.** What about the “Percent of Luminescence Remaining” value (LucPpe2m146; LucPpe2m146, 0.5%, 72 min (times of Table I r41)) of the same compound?
**A.** The value was 499.98%.

**Q.** What about the “Average Relative Light Units” value (LucPpe2m146; LucPpe2m146, 0.5%, 124 min (head r41)) of the same compound?
**A.** The value was 2059.397 rlu.

**Q.** And the “Percent of Luminescence Remaining” value (LucPpe2m146; LucPpe2m146, 0.5%, 124 min (times of Table I r41))?
**A.** The value was 4479.22%.

**Q.** And the “Average Relative Light Units” value (LucPpe2m146; LucPpe2m146, 0.5%, 190 min (head r41))?
**A.** Its value is 1414.397 rlu.

**Q.** What about the “Percent of Luminescence Remaining” value (LucPpe2m146; LucPpe2m146, 0.5%, 190 min (times of Table I r41)) of the same compound?
**A.** The value was 3076.34%.

**Q.** What about the “Average Relative Light Units” value (LucPpe2m146; LucPpe2m146, 0.5%, 251 min (head r41)) of the same compound?
**A.** Its value is 1342.963 rlu.

**Q.** And the “Percent of Luminescence Remaining” value (LucPpe2m146; LucPpe2m146, 0.5%, 251 min (times of Table I r41))?
**A.** The value was 2920.97%.

— US20030104507A1, “Method for detection of ATP” (priority 2001, published 2003)
